The source made the active and inactive calls. No cut-off for these calls is given here.
What was measured:
[1] = species on record: Sus scrofa; assay: Stability of the compound assessed as porcine pancreatic elastase-mediated parent compound depletion by measuring parent compound remaining after 1 hr by LC-MS/MS analysis
[2] = AUC extrapolated in Wistar Han rat at 5 mg/kg, id measured upto 24 hrs by LC-MS/MS analysis; format: ADME, organism-based; details: in vivo, other
[3] = AUC(0 to infinity) in Wistar Han rat at 5 mg/kg, id measured upto 24 hrs by LC-MS/MS analysis; format: ADME, organism-based; design: dose 5 mg/kg, time <=24; details: in vivo
[4] = Metabolic stability in cynomolgus monkey whole blood assessed as half life measured upto 6 hrs by LC-MS/MS analysis; format: ADME, tissue-based, Macaca fascicularis
[5] = target: T1, Proprotein convertase subtilisin/kexin type 9 (Homo sapiens, UniProt Q8NBP7); assay: Inhibition of human PCSK9 using Alexa Fluor […] as substrate incubated for 2 hrs by FRET assay
[6] = target: T1, Proprotein convertase subtilisin/kexin type 9; assay: Inhibition of human PCSK9 using Alexa Fluor […] as substrate incubated for 2 hrs by FRET plus assay
[7] = target: T1, Proprotein convertase subtilisin/kexin type 9; assay: Inhibition of human PCSK9 using Alexa Fluor […] as substrate incubated for 2 hrs by FRET ultra assay
[8] = target: T2, Solute carrier organic anion transporter family member 1B1 (Homo sapiens, UniProt Q9Y6L6); assay: Inhibition of OATP1B1 (unknown origin) expressed in HEK293 cells assessed as reduction in OATP 1B1-mediated [3H]-pitavastatin uptake preincubated for 30 mins followed by [3H]-pitavastatin addition and measured after 2 mins by liquid scintillation analysis; format: cell-based
T2 sequence (Q9Y6L6 whole entry): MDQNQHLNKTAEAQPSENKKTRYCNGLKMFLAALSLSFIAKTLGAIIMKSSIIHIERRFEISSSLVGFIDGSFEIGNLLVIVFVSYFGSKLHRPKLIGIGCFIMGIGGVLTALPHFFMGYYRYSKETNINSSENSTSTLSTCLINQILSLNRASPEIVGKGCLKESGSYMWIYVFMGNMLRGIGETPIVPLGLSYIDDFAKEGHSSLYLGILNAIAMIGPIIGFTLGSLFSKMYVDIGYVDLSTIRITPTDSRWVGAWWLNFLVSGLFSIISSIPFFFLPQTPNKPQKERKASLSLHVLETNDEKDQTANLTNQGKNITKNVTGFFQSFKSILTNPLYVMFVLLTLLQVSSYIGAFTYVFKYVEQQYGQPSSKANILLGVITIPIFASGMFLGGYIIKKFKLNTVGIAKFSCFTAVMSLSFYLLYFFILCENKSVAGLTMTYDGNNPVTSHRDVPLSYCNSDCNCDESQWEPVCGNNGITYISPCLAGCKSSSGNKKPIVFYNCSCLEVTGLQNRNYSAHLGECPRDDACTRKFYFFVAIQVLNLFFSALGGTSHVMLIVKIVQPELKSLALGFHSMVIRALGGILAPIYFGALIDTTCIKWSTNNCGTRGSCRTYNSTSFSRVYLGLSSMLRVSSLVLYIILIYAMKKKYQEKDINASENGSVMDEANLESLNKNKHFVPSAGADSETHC

[9] = species on record: Bos taurus; assay: Stability of the compound assessed as bovine pancreas alpha chymotrypsin-mediated parent compound depletion by measuring parent compound remaining after 1 hr by LC-MS/MS analysis
[10] = species on record: Sus scrofa; assay: Stability of the compound assessed as porcine pepsin-mediated parent compound depletion by measuring parent compound remaining after 1 hr by LC-MS/MS analysis
[11] = Stability of the compound assessed as bovine pancreatic trypsin-mediated parent compound depletion by measuring parent compound remaining after 1 hr by LC-MS/MS analysis; format: ADME, Bos taurus; details: cattle, read-out: Stability
[12] = Cmax in Wistar Han rat at 5 mg/kg, id measured upto 24 hrs by LC-MS/MS analysis; format: ADME, organism-based; design: dose 5 mg/kg, time <=24; details: in vivo
[13] = Tmax in Wistar Han rat at 5 mg/kg, id measured upto 24 hrs by LC-MS/MS analysis; format: ADME, organism-based; details: in vivo
[14] = Bioavailability in Wistar Han rat at 5 mg/kg, id measured upto 24 hrs by LC-MS/MS analysis; format: ADME, organism-based; details: in vivo
[15] = AUC(0 to infinity) in cynomolgus monkey at 0.2 mg/kg, iv measured upto 72 hrs by LC-MS/MS analysis; format: ADME, organism-based, Macaca fascicularis; design: route intravenous, dose 0.2 mg/kg, time <=72; details: in vivo
[16] = Clearance in cynomolgus monkey at 0.2 mg/kg, iv measured upto 72 hrs by LC-MS/MS analysis; format: ADME, organism-based, Macaca fascicularis; details: in vivo
[17] = Volume of distribution at steady state in cynomolgus monkey at 0.2 mg/kg, iv measured upto 72 hrs by LC-MS/MS analysis; format: ADME, organism-based, Macaca fascicularis; details: in vivo, read-out: Vdss
[18] = Half life in cynomolgus monkey at 0.2 mg/kg, iv measured upto 72 hrs by LC-MS/MS analysis; format: ADME, organism-based, Macaca fascicularis; details: in vivo
[19] = Protein binding in cynomolgus monkey at 0.2 mg/kg, iv measured upto 72 hrs by LC-MS/MS analysis; format: ADME, organism-based, Macaca fascicularis; details: in vivo, read-out: PB (converted)
[20] = Unbound clearance in cynomolgus monkey at 0.2 mg/kg, iv measured upto 72 hrs by LC-MS/MS analysis; format: ADME, organism-based, Macaca fascicularis; details: in vivo
[21] = AUC(0 to infinity) in cynomolgus monkey at 1 mg/kg, po measured upto 72 hrs by LC-MS/MS analysis; format: ADME, organism-based, Macaca fascicularis; design: route oral, dose 1 mg/kg, time <=72; details: in vivo
[22] = AUC extrapolated in cynomolgus monkey at 1 mg/kg, po measured upto 72 hrs by LC-MS/MS analysis; format: ADME, organism-based, Macaca fascicularis; details: in vivo
[23] = Cmax in cynomolgus monkey at 1 mg/kg, po measured upto 72 hrs by LC-MS/MS analysis; format: ADME, organism-based, Macaca fascicularis; design: route oral, dose 1 mg/kg, time <=72; details: in vivo
[24] = Tmax in cynomolgus monkey at 1 mg/kg, po measured upto 72 hrs by LC-MS/MS analysis; format: ADME, organism-based, Macaca fascicularis; details: in vivo
[25] = Oral bioavailability in cynomolgus monkey at 1 mg/kg measured upto 72 hrs by LC-MS/MS analysis; format: ADME, organism-based, Macaca fascicularis; details: in vivo
[26] = system: Mast cell; assay: Induction of rat mast cells degranulation activity at 100 uM incubated for 30 mins; format: functional, tissue-based
[27] = target: T1, Proprotein convertase subtilisin/kexin type 9; assay: Inhibition of PCSK9 in human plasma assessed as reduction in unbound PCSK9 by target engagement assay; format: cell-free
[28] = species on record: Macaca fascicularis; assay: Inhibition of PCSK9 in cynomolgus monkey plasma assessed as reduction in unbound PCSK9 by target engagement assay; format: cell-free
[29] = Reduction in LDL-cholesterol levels in cynomolgus monkey at 0.2 mg/kg, iv after 48 hrs; format: functional, Macaca fascicularis; design: scale not given: the % may be the effect or the level left
[30] = system: Macaca fascicularis; assay: Reduction in LDL-cholesterol levels in cynomolgus monkey at 0.2 mg/kg, iv after 4 weeks; format: functional, organism-based
[31] = Reduction in unbound PCSK9 levels in cynomolgus monkey at 0.2 mg/kg, iv after 24 to 48 hrs; format: functional, Macaca fascicularis; design: scale not given: the % may be the effect or the level left; details: time 24-48 hrs
[32] = Reduction in unbound PCSK9 levels in cynomolgus monkey at 0.2 mg/kg, po after 0.5 to 6 hrs; format: functional, Macaca fascicularis; design: scale not given: the % may be the effect or the level left; details: time 0.5-6 hrs
[33] = Reduction in unbound PCSK9 levels in cynomolgus monkey at 0.2 mg/kg, po after 24 hrs; format: functional, Macaca fascicularis; design: scale not given: the % may be the effect or the level left
[34] = AUC(0 to infinity) in Wistar Han rat at 1 mg/kg, iv measured upto 24 hrs by LC-MS/MS analysis; format: ADME, organism-based; design: route intravenous, dose 1 mg/kg, time <=24; details: in vivo
[35] = Clearance in Wistar Han rat at 1 mg/kg, iv measured upto 24 hrs by LC-MS/MS analysis; format: ADME, organism-based; details: in vivo
[36] = Volume of distribution at steady state in Wistar Han rat at 1 mg/kg, iv measured upto 24 hrs by LC-MS/MS analysis; format: ADME, organism-based; details: in vivo, read-out: Vdss
[37] = Half life in Wistar Han rat at 1 mg/kg, iv measured upto 24 hrs by LC-MS/MS analysis; format: ADME, organism-based; details: in vivo
[38] = Protein binding in Wistar Han rat at 1 mg/kg, iv measured upto 24 hrs by LC-MS/MS analysis; format: ADME, organism-based; details: in vivo, read-out: PB (converted)
[39] = Unbound clearance in Wistar Han rat at 1 mg/kg, iv measured upto 24 hrs by LC-MS/MS analysis; format: ADME, organism-based; details: in vivo
[40] = AUC(0 to infinity) in cynomolgus monkey at 1 mg/kg, iv measured upto 72 hrs by LC-MS/MS analysis; format: ADME, organism-based, Macaca fascicularis; design: route intravenous, dose 1 mg/kg, time <=72; details: in vivo
[41] = Clearance in cynomolgus monkey at 1 mg/kg, iv measured upto 72 hrs by LC-MS/MS analysis; format: ADME, organism-based, Macaca fascicularis; details: in vivo
[42] = Volume of distribution at steady state in cynomolgus monkey at 1 mg/kg, iv measured upto 72 hrs by LC-MS/MS analysis; format: ADME, organism-based, Macaca fascicularis; details: in vivo, read-out: Vdss
[43] = Half life in cynomolgus monkey at 1 mg/kg, iv measured upto 72 hrs by LC-MS/MS analysis; format: ADME, organism-based, Macaca fascicularis; details: in vivo
[44] = Protein binding in cynomolgus monkey at 1 mg/kg, iv measured upto 72 hrs by LC-MS/MS analysis; format: ADME, organism-based, Macaca fascicularis; details: in vivo, read-out: PB (converted)
[45] = Unbound clearance in cynomolgus monkey at 1 mg/kg, iv measured upto 72 hrs by LC-MS/MS analysis; format: ADME, organism-based, Macaca fascicularis; details: in vivo
[46] = AUC(0 to infinity) in OATP knock out Wistar Han rat at 1 mg/kg, iv measured upto 24 hrs by LC-MS/MS analysis; format: ADME, organism-based; design: route intravenous, dose 1 mg/kg, time <=24; details: in vivo
[47] = Clearance in OATP knock out Wistar Han rat at 1 mg/kg, iv measured upto 24 hrs by LC-MS/MS analysis; format: ADME, organism-based; details: in vivo
[48] = Volume of distribution at steady state in OATP knock out Wistar Han rat at 1 mg/kg, iv measured upto 24 hrs by LC-MS/MS analysis; format: ADME, organism-based; details: in vivo, read-out: Vdss
[49] = Half life in OATP knock out Wistar Han rat at 1 mg/kg, iv measured upto 24 hrs by LC-MS/MS analysis; format: ADME, organism-based; details: in vivo
[50] = Protein binding in OATP knock out Wistar Han rat; format: ADME; details: read-out: PB
[51] = Unbound clearance in OATP knock out Wistar Han rat at 1 mg/kg, iv measured upto 24 hrs by LC-MS/MS analysis; format: ADME, organism-based; details: in vivo

T1 sequence (Q8NBP7 31-152 limits assumed): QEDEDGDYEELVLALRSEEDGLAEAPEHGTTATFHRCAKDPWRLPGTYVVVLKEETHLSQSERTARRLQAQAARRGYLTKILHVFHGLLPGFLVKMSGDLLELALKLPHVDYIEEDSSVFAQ
T1 sequence (Q8NBP7 153-692 limits assumed): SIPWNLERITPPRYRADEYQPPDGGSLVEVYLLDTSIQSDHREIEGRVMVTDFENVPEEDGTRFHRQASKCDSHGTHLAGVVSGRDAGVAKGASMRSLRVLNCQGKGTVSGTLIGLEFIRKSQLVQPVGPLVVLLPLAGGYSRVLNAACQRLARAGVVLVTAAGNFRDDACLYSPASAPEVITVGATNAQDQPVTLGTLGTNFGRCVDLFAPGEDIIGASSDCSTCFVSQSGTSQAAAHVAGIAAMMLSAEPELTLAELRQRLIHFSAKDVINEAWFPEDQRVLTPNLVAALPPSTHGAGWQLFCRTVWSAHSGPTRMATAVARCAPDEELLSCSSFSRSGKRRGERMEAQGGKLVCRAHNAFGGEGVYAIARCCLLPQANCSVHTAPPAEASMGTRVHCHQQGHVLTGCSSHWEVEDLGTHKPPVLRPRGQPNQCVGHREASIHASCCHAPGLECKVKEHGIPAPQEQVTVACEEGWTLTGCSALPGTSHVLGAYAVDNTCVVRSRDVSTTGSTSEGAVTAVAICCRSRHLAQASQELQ

Compound: COc1ccc(C[C@@H]2NC(=O)[C@H]([C@@H](C)O)NC(=O)[C@@H]3[C@@H]4CCN3C(=O)[C@@H]3Cc5cn(c6ccc(F)cc56)Cc5cn(nn5)-c5cc(cc(c5)CSCCC(=O)N[C@@H](CNC(=O)CCOCCOCC[N+](C)(C)C)C(=O)N[C@H](C)C(=O)N[C@@H](Cc5cccc(c5)C/C=C/CO4)C(=O)N3)CSCCNC(=O)[C@]3(C)CCCN3C2=O)cc1
- Stability [1]: 97%
- %AUCextra [2]: 3%
- AUC(0-inf) [3]: 0.274 µM·h
- half-life [4]: > 360 min
- Ki [5]: > 0.129 nM
- Ki [6]: 0.0114 nM
- Ki [7]: 2.39 pM
- EC50 [8]: > 22000 nM
- Stability [9]: 93%
- Stability [10]: 97.2%
- remaining at 1 h [11]: 96.8%
- Cmax [12]: 92 nM
- Tmax [13]: 30 min
- bioavailability [14]: 2.7%
- AUC(0-inf) [15]: 1.47 µM·h
- clearance [16]: 1.4 mL/min/kg
- Vd [17]: 0.7 L/kg
- half-life [18]: 456 min
- fraction unbound at 72 h [19]: 0.247
- CL free [20]: 5.8 mL/min/kg
- AUC(0-inf) [21]: 0.216 µM·h
- %AUCextra [22]: 43%
- Cmax [23]: 9.8 nM
- Tmax [24]: 2 h
- bioavailability [25]: 2.9%
- Activity [26]: inactive
- inhibition [27]: Active
- inhibition [28]: Active
- Activity [29]: >50%
- Activity [30]: inactive
- Activity [31]: >80%
- Activity [32]: 80%
- Activity [33]: 60%

Compound: COc1ccc(C[C@@H]2NC(=O)[C@H]([C@@H](C)OC)NC(=O)[C@@H]3[C@@H]4CCN3C(=O)[C@H](Cc3c[nH]c5ccc(F)cc35)NC(=O)[C@H](Cc3cccc(c3)C/C=C/CO4)NC(=O)[C@@H](C)NC(=O)[C@H](C)NC(=O)CCSCc3cccc(c3)CSCCNC(=O)[C@]3(C)CCCN3C2=O)cc1
- Ki [5]: 0.48 nM
- Ki [6]: 0.39 nM
- AUC(0-inf) [34]: 0.442 µM·h
- clearance [35]: 28.7 mL/min/kg
- Vd [36]: 0.8 L/kg
- half-life [37]: 126 min
- fraction unbound at 24 h [38]: 0.01
- CL free [39]: > 3000 mL/min/kg
- AUC(0-inf) [40]: 0.648 µM·h
- clearance [41]: 19.6 mL/min/kg
- Vd [42]: 2.1 L/kg
- half-life [43]: 204 min
- fraction unbound at 72 h [44]: 0.024
- CL free [45]: 576 mL/min/kg
- AUC(0-inf) [46]: 2.92 µM·h
- clearance [47]: 4.4 mL/min/kg
- Vd [48]: 0.9 L/kg
- half-life [49]: 234 min
- fraction unbound [50]: 0.01
- EC50 [8]: 130 nM
- CL free [51]: 453 mL/min/kg
- Activity [26]: inactive

From ChEMBL document CHEMBL5034034 (J Med Chem, 2021)
